“And” between values parts separate entries of the source, which are not always exact repeats. Equal entries are not always repeated.
System: 156681-154-R-J1-PDC complex spheroid viability
Assay: Anticancer human tumor 156681-154-R-J1-PDC patient-derived melanoma cell line growth inhibition [CLK]
Settings: for viability, T/C: stronger effect = lower value
How it was run: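 Patient-derived tumor cells grown as complex spheroids with HUVEC endothelial cells and mesenchymal stem cells, treated with drug combinations. Concentrations descend in half-log steps from near clinical Cmax, or from 10 microM if Cmax unknown.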
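Also: spheroids exposed to the agents for seven days.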
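For viability, T/C in this document: 100% = DMSO vehicle control viability.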

Structure (SMILES): NC(=O)C(=Cn1cnc(-c2cc(C(F)(F)F)cc(C(F)(F)F)c2)n1)c1cncnc1 + CN1CCN(c2cc(C(=O)Nc3cc4cc(-c5cnn(C)c5)ccc4cn3)ccn2)CC1
- IC50 (curve of first compound, second compound 0.0316 µM): 61 nM
- IC50 (curve of first compound, second compound 0.1 µM): 31.3 nM
- IC50 (curve of first compound, second compound 0.316 µM): < 9.49 nM
- IC50 (curve of first compound, second compound 1 µM): < 9.49 nM
- IC50 (curve of first compound, second compound 3.16 µM): < 9.49 nM
- IC50 (curve of first compound, second compound 10 µM): < 9.49 nM
- viability, T/C (second compound 0.0316 µM, first compound 0.00949 µM): 93.5%
- viability, T/C (second compound 0.0316 µM, first compound 0.03 µM): 63.4%
- viability, T/C (second compound 0.0316 µM, first compound 0.0949 µM): 45.5%
- viability, T/C (second compound 0.0316 µM, first compound 0.3 µM): 13.1%
- viability, T/C (second compound 0.0316 µM, first compound 0.949 µM): 4.9%
- viability, T/C (second compound 0.0316 µM, first compound 3 µM): 3.07%
- viability, T/C (second compound 0.1 µM, first compound 0.00949 µM): 64.3%
- viability, T/C (second compound 0.1 µM, first compound 0.03 µM): 50.4%
- viability, T/C (second compound 0.1 µM, first compound 0.0949 µM): 26.6%
- viability, T/C (second compound 0.1 µM, first compound 0.3 µM): 6.93%
- viability, T/C (second compound 0.1 µM, first compound 0.949 µM): 2.72%
- viability, T/C (second compound 0.1 µM, first compound 3 µM): 1.03%
- viability, T/C (second compound 0.316 µM, first compound 0.00949 µM): 10.8%
- viability, T/C (second compound 0.316 µM, first compound 0.03 µM): 8.6%
- viability, T/C (second compound 0.316 µM, first compound 0.0949 µM): 1.88%
- viability, T/C (second compound 0.316 µM, first compound 0.3 µM): 0.07%
- viability, T/C (second compound 0.316 µM, first compound 0.949 µM): 1.67%
- viability, T/C (second compound 0.316 µM, first compound 3 µM): 1.86%
- viability, T/C (second compound 1 µM, first compound 0.00949 µM): 0.14%
- viability, T/C (second compound 1 µM, first compound 0.03 µM): 0.33%
- viability, T/C (second compound 1 µM, first compound 0.0949 µM): 0.11%
- viability, T/C (second compound 1 µM, first compound 0.3 µM): 0.39%
- viability, T/C (second compound 1 µM, first compound 0.949 µM): 2.63%
- viability, T/C (second compound 1 µM, first compound 3 µM): 0.65%
- viability, T/C (second compound 3.16 µM, first compound 0.00949 µM): 0.07%
- viability, T/C (second compound 3.16 µM, first compound 0.03 µM): 2.18%
- viability, T/C (second compound 3.16 µM, first compound 0.0949 µM): 2.61%
- viability, T/C (second compound 3.16 µM, first compound 0.3 µM): 1.32%
- viability, T/C (second compound 3.16 µM, first compound 0.949 µM): 1.52%
- viability, T/C (second compound 3.16 µM, first compound 3 µM): 0.84%
- viability, T/C (second compound 10 µM, first compound 0.00949 µM): 0.07%
- viability, T/C (second compound 10 µM, first compound 0.03 µM): 1.56%
- viability, T/C (second compound 10 µM, first compound 0.0949 µM): 1.25%
- viability, T/C (second compound 10 µM, first compound 0.3 µM): 2.65%
- viability, T/C (second compound 10 µM, first compound 0.949 µM): 2.11%
- viability, T/C (second compound 10 µM, first compound 3 µM): 0.95%

Structure (SMILES): COC1C=CCC(C)C(C)S(=O)(=O)NC(=O)c2ccc3c(c2)N(CC2CCC21)CC1(CCCc2cc(Cl)ccc21)CO3 (centres undefined)
- viability, T/C (compound 0.0316 µM): 86.6% and 107%
- viability, T/C (compound 0.1 µM): 85.4% and 73.3%
- viability, T/C (compound 0.316 µM): 86.8% and 70.1%
- viability, T/C (compound 1 µM): 61.2% and 61.9%
- viability, T/C (compound 3.16 µM): 14.6% and 10.7%
- viability, T/C (compound 10 µM): 1.35% and 1.31%
- IC50 (curve of compound): 1330 nM and 861 nM

Source: PubChem BioAssay AID2060627 (Molecular Pharmacology Branch, DTP, NCI, 2025)
